Consider 31 molecules from PubChem BioAssay (NCI).

What all share (test): DTP human tumour cell line panel, 48 h
For test [1], the system named is EKVX NSCLC.
The subject of test [2] is NCI-H23 lung.
For test [3], the system named is SR leukemia.
The subject of test [4] is SK-MEL-28 melanoma.
Test [5] has as its system HOP-92 NSCLC.
Test [6] has as its system OVCAR-5 ovarian.
Test [7] has as its system A498 renal.
The subject of test [8] is HS 578T breast.
Test [9] deals with HT29 colon.
Test [10] concerns HOP-62 NSCLC.

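Compound exposure: 48 hours, 5 concentrations, 96-well plates. GI50: concentration for 50% inhibition of growth. At the TGI there is no net growth.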

As for `CCN(/N=C1\CC2C=CCN(C2)C(=O)Cc2c1[nH]c1ccccc21)S(=O)(=O)c1ccc(C)cc1` (stereo not drawn), the TGI in test [1], in test [2] and in test [3] was above 100 µM in each case.
As for `Cn1c(=O)c2c(=O)cc(N)[nH]c2n(C)c1=O`, the concentration for total growth inhibition (TGI) in test [4], in test [5], in test [6], in test [7], in test [1] and in [8] was above 100 µM each time. The TGI in [2], in test [9] and in [10] was above 100 µM throughout.
For the molecule `C/C(CCN(C)C)=N\OC(=O)c1ccccc1`, the total growth inhibition concentration (TGI) in test [4], in test [5], in test [6], in [7], in test [1] and in test [2] was above 100 µM each time. The concentration for total growth inhibition (TGI) in [9], in [10] and in test [3] was above 100 µM each time.
With `CCCCCCCCCCCCCCCCCCOc1ccccc1COP(=O)(O)OOCC[N+](C)(C)C`, the GI50 in [4] is 1.59 µM; in test [6], 1.51 µM; in test [7] it was 6.88 µM; in test [1], 1.77 µM; in test [8], 1.18 µM; in test [2] it was 0.804 µM. The GI50 is 1.21 µM in [9] and 2.19 µM in test [10]. The TGI worked out at 6.2 µM in test [4]; 6.86 µM in test [6]; 17.2 µM in test [7]; 10.3 µM in [1]; 4.91 µM in test [8]; 4.27 µM in test [2]. Besides, the results for the total growth inhibition concentration (TGI) in [9] and in [10] were 5.38 µM and 15.4 µM, respectively.
As for `COc1ccc(/C=C/C(=O)CCN2CCN(CCC(=O)/C=C/c3ccc(OC)cc3)CC2)cc1`, the TGI was 28.4 µM in test [4]; 34.5 µM in test [5]; 35.3 µM in test [6]; 16.2 µM in test [7]; 28.2 µM in test [1]; 70 µM in test [8]. In addition, the concentration for total growth inhibition (TGI) came out at 30.1 µM in test [2], 23.8 µM in [9] and 49.7 µM in test [10].
As to `NC(CSCSCC(N)C(=O)O)C(=O)O` (stereo not drawn), the TGI in test [4], in test [5], in test [6], in test [7], in test [1] and in test [2] was above 225 µM in each case. The TGI in test [9] and in test [10] was above 225 µM each time.
Consider `Cc1ccc(S(=O)(=O)Nn2c(S)c(C#N)c(-c3ccc(Cl)cc3)c(C#N)c2=O)cc1`, for which the TGI in test [4], in test [5], in test [6], in test [7], in test [1] and in test [2] was above 100 µM in each case. For the same molecule, in test [3], the TGI is above 100 µM.
As for `CC(C)C(CCOS(=O)(=O)O)CCC(C)[C@H]1[C@@H](O)C(O)C2[C@]3(O)C[C@@H](O)C4(O)C[C@@H](O)CC[C@]4(C)C3CC[C@@]21C` (stereo partly drawn), the total growth inhibition concentration (TGI) in [4], in test [5], in test [1], in [2], in test [9] and in test [10] was above 100 µM in each case. In [3], this molecule came in with a total growth inhibition concentration (TGI) above 100 µM.
Take `COc1cccc(/C=N/[N-]C(N)=O)c1[O-].[Co+2].[OH3+].c1ccncc1`: the concentration for total growth inhibition (TGI) in test [4], in test [5], in test [6], in test [1], in [2] and in test [9] was above 100 µM each time. The same molecule came in with a TGI in test [10] above 100 µM.
With `OC(Cc1cc(CC(O)(C(F)(F)F)C(F)(F)F)nc(CC(O)(C(F)(F)F)C(F)(F)F)c1)(C(F)(F)F)C(F)(F)F`, the TGI in test [4] was 5.68 µM; in test [5], 3.45 µM; in test [6], above 10 µM; in test [7], 3.22 µM; in test [1], 9.32 µM; in test [8], 4.63 µM. Also, the results for the total growth inhibition concentration (TGI) in [2], in [9] and in test [10] were 2.65 µM, 6.24 µM and 3.63 µM, respectively.
As to `CC(C)CC1N=C(OCc2ccccc2)OC1=O` (stereo not drawn), the TGI in test [4], in test [5], in test [6], in test [7], in test [1] and in test [8] was above 100 µM throughout. In addition, the TGI in test [2], in test [9] and in test [10] was above 100 µM in each case.
`CC1CC(=O)Nc2ccccc2N1C(=O)C1CC1` (stereo not drawn): the TGI in test [4], in test [5], in test [6], in [7], in [1] and in test [8] was above 100 µM throughout. Moreover, the TGI in [2], in [9] and in test [10] was above 100 µM in each case.
For the molecule `N#C/C(=C\c1ccc[nH]1)C(=O)c1ccccc1`, the TGI in test [4], in test [5], in test [6], in test [1], in [2] and in test [9] was above 100 µM in each case. Besides, the TGI in test [10] and in [3] was above 100 µM throughout.
On to `CC(C)c1c(O[Si](C(C)C)(C(C)C)C(C)C)cc2c(c1O)CC[C@H]1C(C)(C)CCC[C@]21C`, for which the total growth inhibition concentration (TGI) in test [4], in test [5], in test [6], in test [7], in [1] and in [8] was above 100 µM each time. Besides, the total growth inhibition concentration (TGI) in test [2], in test [9] and in test [10] was above 100 µM each time.
Take `O=C1c2ccccc2C(=O)N1NC1=NCCN1`: the total growth inhibition concentration (TGI) in test [4], in test [6], in test [7], in [1], in [2] and in test [9] was above 100 µM each time. In addition, the total growth inhibition concentration (TGI) in test [10] and in test [3] was above 100 µM throughout.
As for `C[C@]12CCc3nn(-c4ccccc4)nc3C1CC[C@@H]1C2CC[C@]2(C)C(=O)CCC12` (stereo partly drawn), the total growth inhibition concentration (TGI) in test [4], in test [5], in [6], in test [1], in test [2] and in test [9] was above 100 µM in each case. In addition, the TGI in test [10] and in test [3] was above 100 µM in each case.
With `COc1ccc(-c2cc(=O)c3cc(O)ccc3o2)c(OC)c1OC`, the TGI in test [4] is above 100 µM; in [5] it was 98 µM; in test [6], 81.4 µM; in test [1], above 100 µM; in test [2] it was above 100 µM; in [9] it was above 100 µM. The results for the TGI in [10] and in test [3] were above 100 µM and 77.6 µM, respectively.
As to `OCC1OC(n2cnc3c(Cl)nc(Nc4ccc(Cl)c(Cl)c4)nc32)CC1O` (stereo not drawn), the total growth inhibition concentration (TGI) in test [5] is 16.3 µM; in test [6] it was above 50 µM; in test [7], 18.9 µM; in test [1], 28.2 µM; in test [8], 32.3 µM; in test [2], 22.6 µM. Also, the TGI in test [9] amounted to 15.2 µM; in test [10], 23 µM.
`C=C1CN2CCc3c([nH]c4ccccc34)C2CC1CC(=O)N(C)C` (stereo not drawn): the total growth inhibition concentration (TGI) in test [4], in test [5], in test [1], in test [2], in [9] and in test [10] was above 309 µM each time. Further, in test [3], the concentration for total growth inhibition (TGI) was above 309 µM.
Consider `C=C(C)COc1cc(NC(=S)OC(C)C)ccc1Cl`, for which the TGI in test [4] was 31.8 µM; in test [5], 26.7 µM; in [6], 29.4 µM; in test [1] it was 24.8 µM; in test [8], 49.9 µM; in [2], 31.3 µM. Also, the concentration for total growth inhibition (TGI) in test [9] was 28.4 µM.
On to `O=C1N[C@H](C(=O)O)[C@@H](c2ccc(OCc3ccccc3)cc2)O1`, for which the concentration for total growth inhibition (TGI) in test [4] was above 100 µM; in test [6], above 100 µM; in test [1], 89.1 µM; in [8], above 100 µM; in test [2], above 100 µM; in test [9], above 100 µM. This molecule also showed a TGI in [10] of 33.2 µM.
For `COC(=O)C1=CCC2c3[nH]c4ccccc4c3CCN2C1` (stereo not drawn), the TGI in [4], in test [5], in [1], in [2], in test [9] and in [10] was above 354 µM each time. The TGI in test [3] was above 354 µM.
As to `CSC1=Nc2ccccc2N=C(c2ccccc2)C1`, the TGI is above 100 µM in test [4]; 85.3 µM in test [5]; above 100 µM in [6]; above 100 µM in test [7]; above 100 µM in [1]; above 100 µM in test [2]. Besides, the total growth inhibition concentration (TGI) in test [9], in test [10] and in [3] was above 100 µM throughout.
For `CC(N)C(C)c1ccccc1` (stereo not drawn), the TGI in test [4], in [5], in test [6], in test [7], in test [1] and in [2] was above 100 µM each time. Besides, the total growth inhibition concentration (TGI) in test [9], in test [10] and in test [3] was above 100 µM each time.
In the case of `Cn1c(=O)n(C2(C)CSC2)c2ccccc21`, the concentration for total growth inhibition (TGI) in test [4], in test [5], in test [6], in test [7], in test [1] and in [2] was above 100 µM in each case. Besides, the TGI in [9], in test [10] and in [3] was above 100 µM each time.
As for `O=c1oc2ccccc2n1P(=O)(Oc1ccc(Cl)cc1)n1c(=O)oc2ccccc21`, the TGI in [4], in [5], in test [6], in test [7], in test [1] and in test [2] was above 100 µM each time. The TGI in test [9], in test [10] and in [3] was above 100 µM throughout.
As for `CC#CC#C/C=C1\C=CC2(OC=CC2O)O1` (stereo not drawn), the TGI is above 23.3 µM in [4]; above 23.3 µM in test [5]; 11.8 µM in [6]; above 16.7 µM in test [1]; above 23.3 µM in test [2]; above 23.3 µM in [9]. In addition, the TGI in [10] and in [3] was above 23.3 µM throughout.
As for `CC1CCc2c(sc3ncnc(N/N=C/c4ccc(Cl)cc4)c23)C1` (stereo not drawn), the TGI is above 100 µM in test [4]; above 100 µM in test [6]; 81.6 µM in [1]; above 100 µM in test [2]; above 100 µM in test [9]; above 100 µM in test [10]. This molecule came in with a TGI in [3] of 55 µM.
Regarding `Cc1cccc(-c2nc(-c3cnccn3)n(Cc3ccccc3)n2)c1`, the concentration for total growth inhibition (TGI) in [4] is above 100 µM; in test [5], 79.6 µM; in test [6] it was above 100 µM; in test [2], above 100 µM; in [9], above 100 µM; in test [10], above 100 µM. For the same molecule, the TGI in test [3] is above 100 µM.
In the case of `C=C(C)[C@H]1CC(=O)[C@@]2(C)C[C@H]3O[C@]3(C)CC/C=C(\C)CC[C@H]12`, the total growth inhibition concentration (TGI) is above 100 µM in test [4]; above 100 µM in test [5]; above 100 µM in test [6]; 73.9 µM in test [7]; above 100 µM in test [1]; above 100 µM in test [2]. In addition, the total growth inhibition concentration (TGI) in test [9] and in test [10] was above 100 µM in each case.
For the molecule `O=C(OCC(OC(=O)c1ccccc1)C1CC(C2(O)CCCCC2)C(=O)O1)c1ccccc1` (stereo not drawn), the TGI in [4] is above 25 µM; in test [6] it was above 25 µM; in test [7], above 25 µM; in test [1], above 25 µM; in test [2] it was 7.85 µM; in [9], above 25 µM. For the same molecule, the TGI in test [10] and in test [3] was above 25 µM each time.

Broadly, the TGI is the concentration giving total growth inhibition. Usually GI50 stands for the concentration that inhibits growth by half.
